Data taken from patent publication US20260125346A1, “Isoquinolinone Derivatives and 4H-Quinolizinone Derivatives and Pharmaceutical Compositions Thereof for the Treatment of Disease” (BeOne Medicines I GmbH, priority 2023, published 2026).

Assays:
[1] = target: PI3Kα (p110/p85) kinase (wild type, "WT") (Homo sapiens, UniProt P42336); assay: PI3Kα (p110/p85) kinase ADP-Glo Assay; type: biochemical; settings: 25 uM ATP
Procedure: PI3Kα (p110/p85) kinase ADP-Glo Assay. Certain compounds disclosed herein were tested for inhibition of PI3Kα (p110/p85) kinase (wild type, “WT”) in assays based on the ADP-Glo™ Kinase Assay methodology. The assays were carried out in 384-well white plates in a reaction mixture containing PI3Kα (p110/p85) kinase, 25 µM ATP, 5.35 µg/mL PI(4,5)P2:PS Lipid Kinase Substrate and […] compound in buffer containing 50 mM HEPES pH7.5, 50 mM NaCl, 3 mM MgCl2, 0.0025% BSA and 2 mM DTT. PI3Kα (p110/p85) kinase was incubated with Lipid Kinase Substrate and compound for 30 minutes at room temperature and the reaction was initiated by the addition of ATP. After reaction at room temperature for 120 minutes, ADP-Glo™ reagents were added to terminate the kinase reaction and deplete the remaining ATP according to the manufacture's instruction (Promega Corporation). After incubation at room temperature for 1 hour, Kinase Detection Reagent (prepared by reconstituting the lyophilized Kinase Detection Substrate with Kinase Detection Buffer of the kit) was added to convert the ADP to ATP and to allow for the newly synthesized ATP to be measured using a luciferase/luciferin reaction. After incubation at room temperature for 0.5 hour, chemiluminescence signals were recorded on a PHERAstar FSX plate reader (BMG Labtech). The chemiluminescence generated in this assay correlates to the amount of ADP generated in the kinase assay, indicating kinase activity. […] The IC50 for each compound was derived from fitting the data to the four-parameter logistic equation by Dotmatics.

[2] = target: PI3Kα (p110[H1047R]/p85) kinase (Homo sapiens, UniProt P42336, H1047R); assay: PI3Kα (p110[H1047R]/p85) kinase ADP-Glo Assay; type: biochemical; settings: 25 uM ATP; for selectivity: WT/H1047R: ADP-Glo Assay IC50 ratio
Chain of PI3Kα (p110[H1047R]/p85) kinase (P42336 whole entry H1047R): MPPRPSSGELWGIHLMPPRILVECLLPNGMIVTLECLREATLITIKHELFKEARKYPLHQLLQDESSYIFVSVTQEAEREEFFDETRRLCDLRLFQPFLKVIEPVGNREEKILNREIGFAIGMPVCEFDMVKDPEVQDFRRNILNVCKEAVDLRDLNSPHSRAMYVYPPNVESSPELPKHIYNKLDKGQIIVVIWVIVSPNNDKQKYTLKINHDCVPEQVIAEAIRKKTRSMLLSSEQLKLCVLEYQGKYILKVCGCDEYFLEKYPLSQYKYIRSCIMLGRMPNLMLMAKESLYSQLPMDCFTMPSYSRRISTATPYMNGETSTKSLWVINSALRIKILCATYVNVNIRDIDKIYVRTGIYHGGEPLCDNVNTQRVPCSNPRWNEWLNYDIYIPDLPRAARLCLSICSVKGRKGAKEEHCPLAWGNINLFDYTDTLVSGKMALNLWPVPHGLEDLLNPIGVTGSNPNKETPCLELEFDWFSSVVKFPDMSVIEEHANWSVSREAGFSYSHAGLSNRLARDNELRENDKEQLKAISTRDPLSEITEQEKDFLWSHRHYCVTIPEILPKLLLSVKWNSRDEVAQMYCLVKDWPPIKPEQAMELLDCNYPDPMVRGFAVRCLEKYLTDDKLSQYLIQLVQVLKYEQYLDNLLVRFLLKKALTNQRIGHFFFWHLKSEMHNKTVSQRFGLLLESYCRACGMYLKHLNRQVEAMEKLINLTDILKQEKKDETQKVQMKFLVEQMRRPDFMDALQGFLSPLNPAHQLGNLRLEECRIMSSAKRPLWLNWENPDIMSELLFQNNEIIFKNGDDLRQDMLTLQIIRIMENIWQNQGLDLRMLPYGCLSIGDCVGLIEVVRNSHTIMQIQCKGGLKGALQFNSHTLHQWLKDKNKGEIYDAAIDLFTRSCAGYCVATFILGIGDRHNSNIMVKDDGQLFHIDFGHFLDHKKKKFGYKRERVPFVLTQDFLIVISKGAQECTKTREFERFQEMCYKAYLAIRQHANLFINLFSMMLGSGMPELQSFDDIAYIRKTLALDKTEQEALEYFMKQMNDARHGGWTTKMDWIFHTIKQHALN
Chain of PI3Kα (p110[H1047R]/p85) kinase (P27986 whole entry partner): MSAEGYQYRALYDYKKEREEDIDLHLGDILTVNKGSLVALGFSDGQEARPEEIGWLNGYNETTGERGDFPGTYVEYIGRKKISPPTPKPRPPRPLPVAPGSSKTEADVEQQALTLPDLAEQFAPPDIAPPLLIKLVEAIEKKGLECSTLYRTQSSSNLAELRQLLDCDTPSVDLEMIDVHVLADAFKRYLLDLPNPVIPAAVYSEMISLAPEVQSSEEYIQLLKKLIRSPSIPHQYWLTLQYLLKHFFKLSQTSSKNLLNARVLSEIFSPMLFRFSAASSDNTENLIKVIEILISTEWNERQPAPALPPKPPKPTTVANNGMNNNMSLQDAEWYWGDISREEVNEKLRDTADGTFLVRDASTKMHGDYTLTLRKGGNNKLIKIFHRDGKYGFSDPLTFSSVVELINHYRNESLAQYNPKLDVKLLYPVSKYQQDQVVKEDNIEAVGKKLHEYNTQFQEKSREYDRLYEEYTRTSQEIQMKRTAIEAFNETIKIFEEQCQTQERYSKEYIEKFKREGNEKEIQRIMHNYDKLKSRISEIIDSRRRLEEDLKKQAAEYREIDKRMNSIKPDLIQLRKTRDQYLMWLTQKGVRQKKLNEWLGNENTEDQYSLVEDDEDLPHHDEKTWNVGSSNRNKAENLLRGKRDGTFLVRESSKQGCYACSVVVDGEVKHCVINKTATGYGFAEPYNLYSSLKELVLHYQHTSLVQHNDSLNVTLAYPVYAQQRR
Procedure: PI3Kα (p110[H1047R]/p85) kinase ADP-Glo Assay. Certain compounds disclosed herein were tested for inhibition of PI3Kα (p110[H1047R]/p85) kinase in assays based on the ADP-Glo™ Kinase Assay methodology. The assays were carried out in 384-well white plates in a reaction mixture containing PI3Kα (p110[H1047R]/p85) kinase, 25 µM ATP, 5.35 µg/ml PI(4,5)P2:PS Lipid Kinase Substrate and […] compound in buffer containing 50 mM HEPES pH7.5, 50 mM NaCl, 3 mM MgCl2, 0.0025% BSA and 2 mM DTT. PI3Kα (p110[H1047R]/p85) kinase was incubated with Lipid Kinase Substrate and compound for 30 minutes at room temperature and the reaction was initiated by the addition of ATP.
After reaction at room temperature for 120 minutes, ADP-Glo™ reagents were added to terminate the kinase reaction and deplete the remaining ATP according to the manufacture's instruction (Promega Corporation). After incubation at room temperature for 1 hour, Kinase Detection Reagent (prepared by reconstituting the lyophilized Kinase Detection Substrate with Kinase Detection Buffer of the kit) was added to convert the ADP to ATP and to allow for the newly synthesized ATP to be measured using a luciferase/luciferin reaction. After incubation at room temperature for 0.5 hour, chemiluminescence signals were recorded on a PHERAstar FSX plate reader (BMG Labtech). The chemiluminescence generated in this assay correlates to the amount of ADP generated in the kinase assay, indicating kinase activity. […] The IC50 for each compound was derived from fitting the data to the four-parameter logistic equation by Dotmatics.

WT cell line SK-BR-3 = assay: Phospho-AKT (Ser473) Inhibition Assay (HTRF), SK-BR-3; type: cell-based; settings: Homo sapiens; SK-BR-3, 1 hour treatment; read-out: p-AKT Inhibition assay (S473) IC50 SK-BR-3
Procedure: The SK-BR-3 (ATCC, HTB-30) cell line was obtained from the American Type Culture Collection. Cells were maintained in McCoy' 5A medium (Gibco, REF #16600108) supplemented with 10% Fetal Bovine Serum. Cultures were maintained in a humidified incubator at 37° C. under 5% CO2/95% air.
Phospho-AKT Inhibition Assay. HTRF Phospho-AKT (Ser473) detection kit (Cisbio, REF #64AKSPEH) was used in phosphor-AKT inhibition assay. For compound screening, PI3Kα H1047R mutated cell line T-47D and WT cell line SK-BR-3 cells were seeded at a density of 3×10^4 cells per well in 96 well plate (Costar, REF #3599) in 95 μL of assay medium (MEM medium (Gibco, REF #12561-056) with 1×NEAA (Gibco, REF #11140-050), 1 mM sodium pyruvate (Gibco, REF #11360-070), and 1 g/ml human insulin (Topscience, REF #T8221)), overnight. Compounds dissolved in 10 mM stock solutions in DMSO were serially diluted 1:3 in DMSO to generate an 11-point dilution series and plated using an INTEGRA ASSIST PLUS pipetting robot. A 20× intermediate compound dilution plate in RPMI1640 medium (200 M starting compound concentration in 2% DMSO) was then prepared. Five μL of intermediate serially diluted compounds were added to the cell plate to final concentrations ranging from […] to 0.1 nM in 0.1% DMSO. 0.1% DMSO alone was used to establish the maximum signal and GDC0077 at final concentration of 10 μM was used as a reference compound for minimum signal. After 1 hour treatment, removed medium and added 50 μL of supplemented lysis buffer (1×) immediately. Incubated for at least 30 minutes at room temperature under shaking. Transferred 16 μL of cell lysate from the 96-well cell-culture plate to a 384-white detection plate (PerkinElmer, Optiplate 384, 6007299). Added 4 μL of premixed antibody solutions prepared in the detection buffer. Incubated 4 hours at room temperature in dark. The plates were read on PHERAstar FSX Microplate reader (BMG LABTECH, Inc.) using standard HTRF settings.
Relative IC50 values were determined using luminescence units by calculating percent inhibition with respect to the in-plate “MIN” (GDC0077 reference control) and “MAX” (DMSO) controls. The data were analyzed using a 4-parameter nonlinear logistic equation (four-parameter logistic concentration-response curve): Y=bottom+[(top−bottom)/1+(X/IC50) slope] • where Y=% inhibition, X=concentration of inhibitor, bottom=minimum value of y attained by curve-fit, top=maximum value of y attained by curve-fit and slope=steepness of curve at the IC50.

Chain of PI3Kα (p110/p85) kinase (wild type, "WT") (P42336 whole entry): as the sequence (P42336 whole entry H1047R) above, with R1047H counted along it
Chain of PI3Kα (p110/p85) kinase (wild type, "WT") (P27986 whole entry partner): as the sequence (P27986 whole entry partner) above

| SMILES | IC50 [1] | IC50 [2] | selectivity: WT/H1047R [2] | IC50 (WT cell line SK-BR-3) |
| --- | --- | --- | --- | --- |
| Cc1cc(C(C)Nc2ccccc2C(=O)O)c2cc(-c3ccccc3)n(C)c(=O)c2c1 (stereo not shown) [Example 1, 2-((1-(2,7-dimethyl-1-oxo-3-phenyl-1,2-dihydroisoquinolin-5-yl)ethyl)amino)benzoic acid] | 2770 nM | 170 nM | 16.3 | 2110 nM |
| Cc1cc(C(C)Nc2ccccc2C(=O)O)c2cc(-c3ccccc3C)n(C)c(=O)c2c1 (stereo not shown) [Example 2, 2-((1-(2,7-dimethyl-1-oxo-3-(o-tolyl)-1,2-dihydroisoquinolin-5-yl)ethyl)amino)benzoic acid] | 22400 nM | 161 nM | 139.3 | 2850 nM |
| Cc1cc(C(C)Nc2ccccc2C(=O)O)c2cc(-c3cccc(C#N)c3)n(C)c(=O)c2c1 (stereo not shown) [Example 3, 2-((1-(3-(3-cyanophenyl)-2,7-dimethyl-1-oxo-1,2-dihydroisoquinolin-5-yl)ethyl)amino)benzoic acid] | 9850 nM | 671 nM | 14.7 | 4350 nM |
| Cc1cc(C(C)Nc2ccccc2C(=O)O)c2cc(-c3cccc(C(C)(C)C#N)c3)n(C)c(=O)c2c1 (stereo not shown) [Example 5, 2-((1-(3-(3-(2-cyanopropan-2-yl)phenyl)-2,7-dimethyl-1-oxo-1,2-dihydroisoquinolin-5-yl)ethyl)amino)benzoic acid] | 5280 nM | 375 nM | 14.1 | 4620 nM |
| Cc1cc(C(C)Nc2ccccc2C(=O)O)c2cc(-c3ccccc3F)n(C)c(=O)c2c1 (stereo not shown) [Example 6, 2-((1-(3-(2-fluorophenyl)-2,7-dimethyl-1-oxo-1,2-dihydroisoquinolin-5-yl)ethyl)amino)benzoic acid] | 2880 nM | 162 nM | 17.8 | 3210 nM |
| Cc1cc(C(C)Nc2ccccc2C(=O)O)c2cc(-c3cccc(F)c3)n(C)c(=O)c2c1 (stereo not shown) [Example 7, 2-((1-(3-(3-fluorophenyl)-2,7-dimethyl-1-oxo-1,2-dihydroisoquinolin-5-yl)ethyl)amino)benzoic acid] | 2520 nM | 164 nM | 15.3 | 1860 nM |
| Cc1cc(C(C)Nc2ccccc2C(=O)O)c2cc(-c3ccc(F)cc3)n(C)c(=O)c2c1 (stereo not shown) [Example 8, 2-((1-(3-(4-fluorophenyl)-2,7-dimethyl-1-oxo-1,2-dihydroisoquinolin-5-yl)ethyl)amino)benzoic acid] | 5960 nM | 183 nM | 32.6 | 2500 nM |
| Cc1cc(C(C)Nc2ccccc2C(=O)O)c2cc(-c3ccc(F)c(F)c3)n(C)c(=O)c2c1 (stereo not shown) [Example 9, 2-((1-(3-(3,4-difluorophenyl)-2,7-dimethyl-1-oxo-1,2-dihydroisoquinolin-5-yl)ethyl)amino)benzoic acid] | 2710 nM | 187 nM | 14.5 | 3640 nM |
| Cc1cc(C(C)Nc2ccccc2C(=O)O)c2cc(-c3cc(F)cc(F)c3)n(C)c(=O)c2c1 (stereo not shown) [Example 10, 2-((1-(3-(3,5-difluorophenyl)-2,7-dimethyl-1-oxo-1,2-dihydroisoquinolin-5-yl)ethyl)amino)benzoic acid] | 8080 nM | 224 nM | 36.1 | 2730 nM |
| Cc1cc(C(C)Nc2ccccc2C(=O)O)c2cc(-c3ccc(F)cc3F)n(C)c(=O)c2c1 (stereo not shown) [Example 11, 2-((1-(3-(2,4-difluorophenyl)-2,7-dimethyl-1-oxo-1,2-dihydroisoquinolin-5-yl)ethyl)amino)benzoic acid] | 21100 nM | 210 nM | 100.2 | > 10000 nM |
| Cc1cc(C(C)Nc2ccccc2C(=O)O)c2cc(-c3cccc(F)c3F)n(C)c(=O)c2c1 (stereo not shown) [Example 12, 2-((1-(3-(2,3-difluorophenyl)-2,7-dimethyl-1-oxo-1,2-dihydroisoquinolin-5-yl)ethyl)amino)benzoic acid] | 6690 nM | 175 nM | 38.2 | 2160 nM |
| COc1cccc(-c2cc3c(C(C)Nc4ccccc4C(=O)O)cc(C)cc3c(=O)n2C)c1 (stereo not shown) [Example 13, 2-((1-(3-(3-methoxyphenyl)-2,7-dimethyl-1-oxo-1,2-dihydroisoquinolin-5-yl)ethyl)amino)benzoic acid] | 5820 nM | 192 nM | 30.3 | 3590 nM |
| COc1ccc(-c2cc3c(C(C)Nc4ccccc4C(=O)O)cc(C)cc3c(=O)n2C)cc1 (stereo not shown) [Example 14, 2-((1-(3-(4-methoxyphenyl)-2,7-dimethyl-1-oxo-1,2-dihydroisoquinolin-5-yl)ethyl)amino)benzoic acid] | 3720 nM | 156 nM | 23.9 | 2060 nM |
| COc1ccc(-c2cc3c(C(C)Nc4ccccc4C(=O)O)cc(C)cc3c(=O)n2C)cn1 (stereo not shown) [Example 15, 2-((1-(3-(6-methoxypyridin-3-yl)-2,7-dimethyl-1-oxo-1,2-dihydroisoquinolin-5-yl)ethyl)amino)benzoic acid] | 6860 nM | 858 nM | 8.0 | 8360 nM |
| Cc1cc(C(C)Nc2ccccc2C(=O)O)c2cc(-c3cnn(-c4ccc(C(N)=O)cn4)c3)n(C)c(=O)c2c1 (stereo not shown) [Example 16, 2-((1-(3-(1-(5-carbamoylpyridin-2-yl)-1H-pyrazol-4-yl)-2,7-dimethyl-1-oxo-1,2-dihydroisoquinolin-5-yl)ethyl)amino)benzoic acid] | 3670 nM | 240 nM | 15.3 | > 10000 nM |
| Cc1cc(C(C)Nc2ccccc2C(=O)O)c2cc(-c3nc4ccccc4s3)n(C)c(=O)c2c1 (stereo not shown) [Example 17, 2-((1-(3-(benzo[d]thiazol-2-yl)-2,7-dimethyl-1-oxo-1,2-dihydroisoquinolin-5-yl)ethyl)amino)benzoic acid] | 7780 nM | 255 nM | 30.5 | 795 nM |
